pIC50: −log10 of the molar value. Counter-ions that a name gives are not always drawn.
Biological target: T1, human CCR5 (Homo sapiens, UniProt P51681)
T1 construct: expressed in transfected cells; host or cells: CHO-dhfr(-)
Assay: Inhibition test on the binding of RANTES to CCR5 (RANTES-induced transient increase of Ca ion) in CCR5/CHO cells
Assay type: cell-based
Conditions: human CCR5 stably over-expressing CHO cell; recombinant human RANTES 10 nM; intracellular Ca2+ transient increase (Fura-2AM)
Method: (1) Isolation of Human CCR5 Gene Human placental cDNA was prepared using Marathon cDNA amplification kit (Clontech). PCR primers hCCR5Xbal-F1: Using the human placental cDNA as the template and using Ex Taq (Takara), PCR reaction (2 minutes at 95° C. {cube root}(30 seconds at 95° C., 45 seconds at 60° C., 1 minute at 72° C.)×35 times) was carried out. The thus amplified PCR product was subjected to a 1% agarose gel electrophoresis, purified using QIAquick Gel Extraction Kit (QUIAGEN) and then digested with a restriction enzyme XbaI. The digested fragments were ligated to an expression vector pEF-BOS-bsr using DNA Ligation Kit Ver. 2 (Takara) and transformed into Escherichia coli DH5α. By preparing the resulting plasmid pEF-BOS-bsr/hCCR5, its DNA sequence was verified. CHO-dhfr(−) was cultured using Ham's F-12 (containing fetal bovine serum (10%), penicillin (50 U/ml) and streptomycin ([…])). […] Transient increase in the intracellular Ca^2+ concentration induced by the human RANTES was measured using a Ca^2+ detector for 96 well use (Hamamatsu Photonics), and inhibition ratio (%) of the test compound was calculated by the following calculation formula. • Inhibition ratio=(Ec−Ea)/Ec×100 • Ec: measured value of Ca^2+ transient increase by RANTES • Ea: measured value of Ca^2+ transient increase by RANTES when a test compound was added.

T1 sequence (P51681 whole entry): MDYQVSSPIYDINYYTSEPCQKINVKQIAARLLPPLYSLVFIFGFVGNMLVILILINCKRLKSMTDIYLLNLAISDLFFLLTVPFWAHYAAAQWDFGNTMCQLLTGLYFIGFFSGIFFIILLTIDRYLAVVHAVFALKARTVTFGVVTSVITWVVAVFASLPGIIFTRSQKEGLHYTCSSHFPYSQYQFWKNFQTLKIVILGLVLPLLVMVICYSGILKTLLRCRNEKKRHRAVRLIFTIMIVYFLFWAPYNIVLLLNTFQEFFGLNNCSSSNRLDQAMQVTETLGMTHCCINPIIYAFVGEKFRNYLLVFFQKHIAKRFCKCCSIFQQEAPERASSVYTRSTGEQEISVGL

pIC50: 6.12
SMILES: CCCCN1C(=O)[C@H](CC2CCCCC2)NC(=O)C12CCN(Cc1ccccc1)CC2C (stereo partly drawn) [Example 1, (3S)-9-benzyl-1-butyl-3-(cyclohexylmethyl)-7-methyl-1,4,9-triazaspiro[5.5]undecane-2,5-dione hydrochloride]

Reference: patent US20070155713A1, “Nitrogen-containing heterocyclic compounds and use thereof” (priority 2003, published 2007)
